ChEMBL document CHEMBL5241110, “Medicines for millions of patients” (RSC Med Chem, 2022)

Experiments:
Pancuronium = experiment: Binding affinity to pancuronium
Rocuronium = experiment: Binding affinity to rocuronium by ITC method

Ka (Rocuronium) | SMILES | Ka (Pancuronium)
– | CC(=O)O[C@@H]1C[C@H]2CCC3C4C[C@H]([N+]5(C)CCCCC5)[C@H](OC(C)=O)[C@@]4(C)CCC3[C@@]2(C)C[C@@H]1[N+]1(C)CCCCC1 (some centres not stated) | 167 M⁻¹
1.05 10^7 M^-1 | O=C(O)CCSC[C@H]1O[C@@H]2O[C@H]3[C@H](O)[C@@H](O)[C@@H](O[C@H]4[C@H](O)[C@@H](O)[C@@H](O[C@H]5[C@H](O)[C@@H](O)[C@@H](O[C@H]6[C@H](O)[C@@H](O)[C@@H](O[C@H]7[C@H](O)[C@@H](O)[C@@H](O[C@H]8[C@H](O)[C@@H](O)[C@@H](O[C@H]9[C@H](O)C(O)[C@@H](O[C@H]1[C@H](O)[C@H]2O)O[C@@H]9CSCCC(=O)O)O[C@@H]8CSCCC(=O)O)O[C@@H]7CSCCC(=O)O)O[C@@H]6CSCCC(=O)O)O[C@@H]5CSCCC(=O)O)O[C@@H]4CSCCC(=O)O)O[C@@H]3CSCCC(=O)O (some centres not stated) | –
